Assay results taken from the supplement of paper PMC10307832.

Columns and labels:
Assay in all cases: relative viability (nuclei count vs DMSO), 5 days (fraction); higher = more cells survive
[1] = compound: Cc1ccc2nc(NCCN)c3ncc(C)n3c2c1 + CC(=O)Nc1cccc(-n2c(=O)n(C3CC3)c(=O)c3c(Nc4ccc(I)cc4F)n(C)c(=O)c(C)c32)c1 [Trametinib] (partner 0.02 µM)
Procedure, shortened: (§1)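 Cells from lung cancer lines were seeded into 1536-well plates and, one day later, dosed by pin tool. Treatments were either a single drug or a fixed dose of an anchor drug with five library-drug doses (not always all listed) in √10 steps. After 5 days, nuclei were stained in a one-step fixation (final 0.05% Triton X-100, 1% formaldehyde, 1 ug/ml Hoechst) and counted on 4× images, and relative viability is the treated-to-vehicle nuclei ratio, as the median of duplicate plates.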

[2] = compound: Cc1ccc2nc(NCCN)c3ncc(C)n3c2c1 + CC(C)C[C@H](NC(=O)[C@H](Cc1ccccc1)NC(=O)c1cnccn1)B(O)O [Bortezomib] (partner 0.002 µM)
Procedure, shortened: as §1

Salubrinal + Tozasertib = compound: O=C(/C=C/c1ccccc1)NC(NC(=S)Nc1cccc2cccnc12)C(Cl)(Cl)Cl [Salubrinal] + Cc1cc(Nc2cc(N3CCN(C)CC3)nc(Sc3ccc(NC(=O)C4CC4)cc3)n2)n[nH]1 [Tozasertib] (partner 0.1 µM)
Procedure, shortened: as §1

Salubrinal + Navitoclax = compound: O=C(/C=C/c1ccccc1)NC(NC(=S)Nc1cccc2cccnc12)C(Cl)(Cl)Cl [Salubrinal] + CC1(C)CCC(c2ccc(Cl)cc2)=C(CN2CCN(c3ccc(C(=O)NS(=O)(=O)c4ccc(N[C@H](CCN5CCOCC5)CSc5ccccc5)c(S(=O)(=O)C(F)(F)F)c4)cc3)CC2)C1 [Navitoclax] (partner 0.5 µM)
Procedure, shortened: as §1

UMC-11
relative viability ([1]; first compound 0.04 µM): 0.707
relative viability ([1]; first compound 0.1265 µM): 0.7
relative viability ([1]; first compound 0.4 µM): 0.72
relative viability ([1]; first compound 1.265 µM): 0.703
relative viability ([1]; first compound 4 µM): 0.632
relative viability ([2]; first compound 0.04 µM): 0.818
relative viability ([2]; first compound 0.1265 µM): 0.809
relative viability ([2]; first compound 0.4 µM): 0.667
relative viability ([2]; first compound 1.265 µM): 0.795
relative viability ([2]; first compound 4 µM): 0.671
relative viability (Salubrinal + Tozasertib; first compound 0.08 µM): 0.208
relative viability (Salubrinal + Tozasertib; first compound 0.253 µM): 0.225
relative viability (Salubrinal + Tozasertib; first compound 0.8 µM): 0.21
relative viability (Salubrinal + Tozasertib; first compound 2.53 µM): 0.186
relative viability (Salubrinal + Tozasertib; first compound 8 µM): 0.189
relative viability (Salubrinal + Navitoclax; first compound 0.08 µM): 0.281
relative viability (Salubrinal + Navitoclax; first compound 0.253 µM): 0.301
relative viability (Salubrinal + Navitoclax; first compound 0.8 µM): 0.329
relative viability (Salubrinal + Navitoclax; first compound 2.53 µM): 0.318
relative viability (Salubrinal + Navitoclax; first compound 8 µM): 0.305
